Test results: patent US8759373B2, “Cyanoisoquinoline compounds and methods of use thereof” (Fibrogen, Inc., priority 2006, dated 2014)

System: mouse erythropoietin
Test: Plasma erythropoietin levels in mice after IV dosing (mouse erythropoietin QUANTIKINE ELISA)
Format: in vivo, Male Swiss Webster mice
Details: blood 4 hours post IV dosing, same conditions and concentration
Protocol: Compounds were tested for activity using the following assay. Compounds were dissolved in aqueous solution containing twice as much sodium hydroxide, mole-for-mole, as compound and dextrose as tonicity agent. Male Swiss Webster mice were dosed by tail vein injection with the compound, and blood samples were collected into EDTA and heparin 4 hours post IV dosing. The samples were analyzed using a mouse erythropoietin QUANTIKINE ELISA kit (R&D Systems Inc., Minneapolis Minn.) according to the manufacturer's instructions. […] Table 1 below illustrates the fold difference (i.e., the level of improvement) between erythropoietin levels achieved by compounds of the invention compared to erythropoietin levels achieved by compounds having the same structure except the cyano group at the C-1 position is replaced as shown below, tested under the same conditions and at the same concentration.

[1] = comparator: same structure with —Cl in place of cyano at C-1, tail vein injection
[2] = comparator: same structure with —CH3 in place of cyano at C-1, tail vein injection
[3] = comparator: same structure with —H in place of cyano at C-1, tail vein injection

SMILES	Fold Difference (erythropoietin levels vs. comparative compound) [1] [×]	Fold Difference (erythropoietin levels vs. comparative compound) [2] [×]	Fold Difference (erythropoietin levels vs. comparative compound) [3] [×]	other results
N#Cc1nc(C(=O)NCC(=O)O)c(O)c2ccccc12 [Example 1, [(1-Cyano-4-hydroxy-isoquinoline-3-carbonyl)-amino]-acetic acid]	4.7	–	–	–
N#Cc1nc(C(=O)NCC(=O)O)c(O)c2ccc(Oc3ccccc3)cc12 [Example 3, [(1-Cyano-4-hydroxy-7-phenoxy-isoquinoline-3-carbonyl)-amino]-acetic acid]	–	2.5	–	–
N#Cc1nc(C(=O)NCC(=O)O)c(O)c2ccc(Oc3ccc(F)cc3)cc12 [Example 6, {[1-Cyano-7-(4-fluoro-phenoxy)-4-hydroxy-isoquinoline-3-carbonyl]-amino}-acetic acid]	31	–	–	–
N#Cc1nc(C(=O)NCC(=O)O)c(O)c2cccc(Oc3ccccc3)c12 [Example 9, [(1-Cyano-4-hydroxy-8-phenoxy-isoquinoline-3-carbonyl)-amino]-acetic acid]	–	2.4	–	–
N#Cc1nc(C(=O)NCC(=O)O)c(O)c2cc(Oc3ccccc3)ccc12 [Example 12, [(1-Cyano-4-hydroxy-6-phenoxy-isoquinoline-3-carbonyl)-amino]-acetic acid]	449	–	–	Fold Difference (erythropoietin levels vs. comparative compound) (comparator: same structure with —Br in place of cyano at C-1, tail vein injection): 362×
COc1cccc(Oc2cccc3c(O)c(C(=O)NCC(=O)O)nc(C#N)c23)c1 [Example 20, {[1-Cyano-4-hydroxy-8-(3-methoxy-phenoxy)-isoquinoline-3-carbonyl]-amino}-acetic acid]	–	–	23	–
N#Cc1nc(C(=O)NCC(=O)O)c(O)c2ccc(Cc3ccccc3)cc12 [Example 22, [(7-Benzyl-1-cyano-4-hydroxy-isoquinoline-3-carbonyl)-amino]-acetic acid]	–	–	26	–
N#Cc1nc(C(=O)NCC(=O)O)c(O)c2c(Oc3ccc(F)cc3)cccc12 [Example 23, {[1-Cyano-5-(4-fluoro-phenoxy)-4-hydroxy-isoquinoline-3-carbonyl]-amino}-acetic acid]	–	–	277	–
Cc1nc2ccc(Oc3ccc4c(C#N)nc(C(=O)NCC(=O)O)c(O)c4c3)cc2s1 [Example 39, {[1-Cyano-4-hydroxy-6-(2-methyl-benzothiazol-6-yloxy)-isoquinoline-3-carbonyl]-amino}-acetic acid]	–	178	–	–
CN(C)c1nc2cc(Oc3ccc4c(C#N)nc(C(=O)NCC(=O)O)c(O)c4c3)ccc2o1 [Example 40, {[1-Cyano-6-(2-dimethylamino-benzooxazol-5-yloxy)-4-hydroxy-isoquinoline-3-carbonyl]-amino}-acetic acid]	–	–	81	–
